Patent US4370326A, “Cephem compounds and composition” (Fujisawa Pharmaceutical Co., Ltd., priority 1977, dated 1983)
Values after ≈ are worked out from the molar mass of the structure shown.

Legend:
Assay in all cases: In vitro antibacterial activity, two-fold agar-plate dilution method
Type in all cases: cell-based
Salmonella enteritidis = conditions: Salmonella enterica, heart infusion agar, 37° C., 20 hours, 10^8 viable cells per ml, read-out: minimal inhibitory concentration (MIC)
Description: (§1) In vitro antibacterial activity was determined by the two-fold agar-plate dilution method as described below. One loopful of an overnight culture of each test strain in Trypticase-soy broth (10^8 viable cells per ml.) was streaked on heart infusion agar (HI-agar) containing graded concentrations of antibiotics, and the minimal inhibitory concentration (MIC) was expressed in terms of μg/ml. after incubation at 37° C. for 20 hours. [drawing 15]

Escherichia coli 324 = conditions: heart infusion agar, 37° C., 20 hours, 10^8 viable cells per ml, read-out: minimal inhibitory concentration (MIC)
Description: as §1

Proteus vulgaris 616 = conditions: heart infusion agar, 37° C., 20 hours, 10^8 viable cells per ml, read-out: minimal inhibitory concentration (MIC)
Description: as §1

Klebsiella aerogenes 417 = conditions: heart infusion agar, 37° C., 20 hours, 10^8 viable cells per ml, read-out: minimal inhibitory concentration (MIC)
Description: as §1

Proteus mirabilis 520 = conditions: heart infusion agar, 37° C., 20 hours, 10^8 viable cells per ml, read-out: minimal inhibitory concentration (MIC)
Description: as §1

MIC (Salmonella enteritidis) [µg/mL] | MIC (Escherichia coli 324) [µg/mL] | MIC (Proteus vulgaris 616) [µg/mL] | MIC (Klebsiella aerogenes 417) [µg/mL] | MIC (Proteus mirabilis 520) [µg/mL] | SMILES
3.13 (≈ 8.81 µM) | 0.78 (≈ 2.19 µM) | 1.56 (≈ 4.39 µM) | 0.39 (≈ 1.1 µM) | 0.78 (≈ 2.19 µM) | Nc1nc(C(N)C(=O)NC2C(=O)N3C(C(=O)O)=CCSC23)cs1 (centres unmarked) [Compound 3]
3.13 (≈ 8.78 µM) | 1.56 (≈ 4.38 µM) | 12.5 (≈ 35.1 µM) | 0.78 (≈ 2.19 µM) | 1.56 (≈ 4.38 µM) | Nc1nc(C(O)C(=O)NC2C(=O)N3C(C(=O)O)=CCSC23)cs1 (centres unmarked) [Compound 4]
1.56 (≈ 4.58 µM) | 1.56 (≈ 4.58 µM) | 6.25 (≈ 18.4 µM) | 0.2 (≈ 0.588 µM) | 0.39 (≈ 1.15 µM) | Nc1nc(CC(=O)NC2C(=O)N3C(C(=O)O)=CCSC23)cs1 (centres unmarked) [Compound 2]
1.56 (≈ 4.4 µM) | 1.56 (≈ 4.4 µM) | 12.5 (≈ 35.3 µM) | 0.1 (≈ 0.282 µM) | 0.78 (≈ 2.2 µM) | Nc1nc(C(=O)C(=O)NC2C(=O)N3C(C(=O)O)=CCSC23)cs1 (centres unmarked) [Compound 1]
